In PubChem BioAssay AID240 (DTP/NCI, 2004):
Values joined by “and” are separate entries in the source; they are usually repeats but may differ in a detail not shown here. Identical values can stand only once. Toxic doses and inconclusive results are not listed. Rule for the calls: active = survival T/C of 150% or more; inactive = T/C below 125% in these data. Starred links: 1 amine or outer side, 2 acyl side, 3 side chain; linkers in the order of their positions; H or OH if unused. Positions of bridges follow the written chain, without caps; N, C: chain ends. Non-standard residues stand in square brackets, D forms with d. Residues, ends and D or L forms follow the SMILES beside them. Chains are numbered I, II in the order given. Actinocin(9to1) = Cc1c2oc3c(C)ccc(C(=O)[*:1])c3nc-2c(C(=O)[*:2])c(N)c1=O; aThr = C[C@H](O)[C@H](N)C(=O)O; NMeV = CN[C@H](C(=O)O)C(C)C; Sar = CNCC(=O)O

Tested on: Lymphoma 4 ip in BDF1 mice, median survival
Assay: NCI In Vivo Anticancer Drug Screen. Data for tumor model Lymphoma 4 (intraperitoneal) in B6D2F1 (BDF1) mice
Conditions: endpoint: median survival time, schedule: Q01DX010 (ip), higher = longer survival
Protocol: The antitumor activity of compounds was measured in mice bearing transplantable tumors. Survival or tumor size were measured and the results are expressed as the measurement made in the treated group (T) divided by the measurement made in the vehicle treated control group (C). The tumor model used in this assay is Lymphoma 4 (intraperitoneal) in B6D2F1 (BDF1) mice

[1] = dose: 3.13 mg/kg/injection, vehicle: saline
[2] = dose: 6.25 mg/kg/injection, vehicle: saline
[3] = dose: 12.5 mg/kg/injection, vehicle: saline
[4] = dose: 0.25 mg/kg/injection, vehicle: saline
[5] = dose: 0.5 mg/kg/injection, vehicle: saline
[6] = dose: 1.0 mg/kg/injection, vehicle: saline
[7] = dose: 125.0 mg/kg/injection, vehicle: saline
[8] = dose: 250.0 mg/kg/injection, vehicle: saline
[9] = dose: 18.8 mg/kg/injection, vehicle: saline
[10] = dose: 37.5 mg/kg/injection, vehicle: saline
[11] = dose: 75.0 mg/kg/injection, vehicle: saline
[12] = dose: 10.0 mg/kg/injection, vehicle: saline
[13] = dose: 20.0 mg/kg/injection, vehicle: saline
[14] = dose: 40.0 mg/kg/injection, vehicle: saline
[15] = dose: 6.0 mg/kg/injection, vehicle: saline
[16] = dose: 8.0 mg/kg/injection, vehicle: saline
[17] = dose: 2.0 mg/kg/injection, vehicle: saline
[18] = dose: 4.0 mg/kg/injection, vehicle: saline
[19] = dose: 25.0 mg/kg/injection, vehicle: saline
[20] = dose: 50.0 mg/kg/injection, vehicle: saline
[21] = dose: 200.0 mg/kg/injection, vehicle: saline
[22] = dose: 62.5 mg/kg/injection, vehicle: saline
[23] = dose: 500.0 mg/kg/injection, vehicle: saline
[24] = dose: 1.25 mg/kg/injection, vehicle: saline
[25] = dose: 5.0 mg/kg/injection, vehicle: saline
[26] = dose: 15.6 mg/kg/injection, vehicle: saline
[27] = dose: 31.3 mg/kg/injection, vehicle: saline
[28] = dose: 100.0 mg/kg/injection, vehicle: saline

Measured: T/C

N=[N+]=CC(=O)OCC(N)C(=O)O (stereo not given)
inactive: [1] 102 % of control and 111 % of control | [2] 102 % of control and 108 % of control | [3] 91 % of control and 114 % of control

C1CN1c1nc(N2CC2)nc(N2CC2)n1
inactive: dose: 0.13 mg/kg/injection, vehicle: saline 94 % of control and 105 % of control | [4] 100 % of control and 102 % of control | [5] 108 % of control | [6] 97 % of control

CCOC(N)=O
inactive: [7] 103 % of control and 117 % of control | [8] 106 % of control and 111 % of control

CS(=O)(=O)OCCN(CCOS(C)(=O)=O)c1ccc(N=O)cc1
inactive: [5] 123 % of control

CS(=O)(=O)OCCCl
inactive: dose: 9.4 mg/kg/injection, vehicle: saline 100 % of control | [9] 100 % of control and 103 % of control | [10] 100 % of control and 106 % of control | [11] 96 % of control and 103 % of control

O=c1[nH]c(=O)n(C2CC(O)C(CO)O2)cc1F (stereo not given)
inactive: [12] 103 % of control | [13] 116 % of control and 123 % of control | [14] 119 % of control

O=C(Nc1ccc(C2=NCCN2)cc1)c1ccc(C(=O)Nc2ccc(C3=NCCN3)cc2)c([N+](=O)[O-])c1
active: [15] 157 % of control | [16] 189 % of control and 278 % of control | dose: 12.0 mg/kg/injection, vehicle: saline 185 % of control and 300 % of control
inactive: dose: 18.0 mg/kg/injection, vehicle: saline 96 % of control and 121 % of control

COCCCNP(=S)(N1CC1)N1CC1
inactive: [5] 93 % of control | [6] 100 % of control | [17] 113 % of control | [18] 116 % of control

OC(CBr)C(O)C(O)C(O)CBr (stereo not given)
inactive: [19] 115 % of control | [20] 115 % of control | [21] 115 % of control

S=P(N1CC1)(N1CC1)N1CC1
inactive: dose: 0.05 mg/kg/injection, vehicle: saline 106 % of control | dose: 0.75 mg/kg/injection, vehicle: saline 110 % of control | dose: 1.5 mg/kg/injection, vehicle: saline 117 % of control and 123 % of control | [15] 114 % of control

Nc1nc(F)nc2c1ncn2C1OC(CO)C(O)C1O (stereo not given)
inactive: [4] 100 % of control | [5] 107 % of control and 114 % of control | [6] 92 % of control and 103 % of control | [17] 107 % of control | [18] 96 % of control

N#CCSc1ncnc2nc[nH]c12
inactive: dose: 15.0 mg/kg/injection, vehicle: saline 103 % of control | dose: 30.0 mg/kg/injection, vehicle: saline 100 % of control and 107 % of control | dose: 60.0 mg/kg/injection, vehicle: saline 100 % of control and 107 % of control | dose: 120.0 mg/kg/injection, vehicle: saline 107 % of control

OCC1OC(n2cnc3c(Cl)ncnc32)C(O)C1O (stereo not given)
inactive: [22] 100 % of control and 103 % of control | [7] 94 % of control and 103 % of control | [8] 94 % of control and 106 % of control | [23] 94 % of control and 100 % of control

O=C(O)CCCc1ccc(N(CCCl)CCCl)cc1
inactive: [1] 100 % of control and 105 % of control | [2] 100 % of control and 123 % of control | [3] 114 % of control

O=C(O)c1[nH]c(=O)[nH]c(=O)c1F
inactive: [24] 120 % of control | [12] 96 % of control
active: [25] 163 % of control and 175 % of control

CCn1cnc2c(=S)nc[nH]c21
inactive: [18] 96 % of control | [16] 100 % of control | [26] 93 % of control and 106 % of control | dose: 16.0 mg/kg/injection, vehicle: saline 96 % of control | [27] 103 % of control | dose: 32.0 mg/kg/injection, vehicle: saline 96 % of control and 100 % of control | [22] 100 % of control

Cc1c2oc3c(C)ccc(C(=O)N[C@@H]4C(=O)N[C@H](C(C)C)C(=O)N5CCC[C@H]5C(=O)N(C)CC(=O)N(C)[C@@H](C(C)C)C(=O)O[C@H]4C)c3nc-2c(C(=O)N[C@@H]2C(=O)N[C@H](C(C)C)C(=O)N3CCC[C@H]3C(=O)N(C)CC(=O)N(C)[C@@H](C(C)C)C(=O)O[C@H]2C)c(N)c1=O (I: [aThr][dV]P[Sar][NMeV] / II: [aThr][dV]P[Sar][NMeV]; ester I:1-I:C, II:1-II:C; linker I:N-II:N via Actinocin(9to1))
inactive: dose: 12.5 micrograms/kg/injection, vehicle: other 114 % of control and 123 % of control | dose: 25.0 micrograms/kg/injection, vehicle: other 123 % of control
active: dose: 50.0 micrograms/kg/injection, vehicle: other 150 % of control and 179 % of control | dose: 100.0 micrograms/kg/injection, vehicle: other 194 % of control

CSc1ncnc2nc[nH]c12
inactive: [19] 100 % of control and 103 % of control | [20] 96 % of control and 115 % of control | [28] 103 % of control | [21] 100 % of control and 115 % of control

O=c1[nH]cc(F)c(=O)[nH]1
active: [25] 161 % of control | [12] 179 % of control and 180 % of control | [13] 193 % of control and 246 % of control

OCC1OC(n2cnc3c(=S)nc[nH]c32)C(O)C1O (stereo not given)
inactive: [13] 96 % of control and 105 % of control | [14] 106 % of control and 111 % of control | dose: 80.0 mg/kg/injection, vehicle: saline 100 % of control and 109 % of control | dose: 160.0 mg/kg/injection, vehicle: saline 100 % of control and 105 % of control

CN(C)c1nc(N(C)C)nc(N(C)C)n1
inactive: [9] 96 % of control and 100 % of control | [10] 100 % of control | [11] 100 % of control | dose: 150.0 mg/kg/injection, vehicle: saline 100 % of control and 103 % of control

CCN(CC)CCNc1ccc(C)c2sc3ccccc3c(=O)c12
inactive: [19] 103 % of control | [20] 120 % of control and 123 % of control | [28] 103 % of control

CN(C)/N=N/c1nc[nH]c1C(N)=O
inactive: [19] 114 % of control | [20] 114 % of control | [21] 114 % of control

COc1ccc2c(c1OC)C(=O)O[C@@H]2[C@H]1c2c(cc3c(c2OC)OCO3)CCN1C
inactive: [26] 107 % of control | [27] 106 % of control and 107 % of control | [22] 96 % of control and 107 % of control | [7] 93 % of control and 96 % of control | [8] 93 % of control

CC(=O)Nc1ccc2nc3ccc(NC(C)=O)cc3[n+](-c3ccccc3)c2c1
inactive: [19] 111 % of control | [20] 117 % of control

Nc1nc(=S)c2[nH]cnc2[nH]1
inactive: dose: 1.25 mg/kg/injection, vehicle: other 88 % of control | [24] 94 % of control | dose: 2.5 mg/kg/injection, vehicle: saline 88 % of control

CC(=O)N(C)C
inactive: [22] 87 % of control | [8] 88 % of control | [23] 100 % of control

CC(=O)NC1=C(N2CC2)C(=O)C(NC(C)=O)=C(N2CC2)C1=O
inactive: [4] 121 % of control
active: [6] 175 % of control | [17] 164 % of control

S=P(N1CCOCC1)(N1CC1)N1CC1
inactive: dose: 0.63 mg/kg/injection, vehicle: saline 100 % of control | [24] 100 % of control

CC[C@]1(O)C[C@H]2CN(CCc3c([nH]c4ccccc34)[C@@](C(=O)OC)(c3cc4c(cc3OC)N(C=O)[C@H]3[C@@](O)(C(=O)OC)[C@H](OC(C)=O)[C@]5(CC)C=CCN6CC[C@]43[C@@H]65)C2)C1
inactive: dose: 0.03 mg/kg/injection, vehicle: saline 104 % of control and 121 % of control | dose: 0.06 mg/kg/injection, vehicle: saline 108 % of control | [5] 104 % of control
active: dose: 0.12 mg/kg/injection, vehicle: saline 158 % of control
